Assay results reported in publication PMC4102417 (PLoS Neglected Tropical Diseases, 2014).
Where “and” joins values, the source holds several entries; their conditions need not be identical. Identical values can stand only once. Counter-ions that a name gives are not always drawn. Like-named read-outs stand apart in the source and are kept apart here.

How the values were obtained:
[1] = test system: 3T3 fibroblast cells; test: cells; format: cell-based, murine; conditions: for activity at 10 µM: Mus musculus, NIH3T3, 72 h, read-out: Mammalian (3T3) cell % growth at 10 uM
[2] = test system: T. cruzi (Tulahuen strain); test: microbe, parasite or virus in culture; format: cell-based, Trypanosoma cruzi; conditions: for activity at 10 µM: read-out: T. cruzi % growth @ 10 uM (Amastigotes)
Summary of the method: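 Tulahuen parasites expressing beta-galactosidase were added (1×10^4 trypomastigotes/well) to 3T3 fibroblasts plated 24 h earlier, 4 h before compound (10 µM final).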

[3] = Trypanosoma cruzi, TULAHUEN, Fibroblast, 120 h, 10 uM, Table S2
[4] = Trypanosoma cruzi, TULAHUEN, Fibroblast, Table S2, amastigotes, read-out: T. cruzi EC50
[5] = Trypanosoma cruzi, TULAHUEN, Fibroblast, 120 h, 10 uM, Table S1
[6] = Trypanosoma cruzi, TULAHUEN, Fibroblast, read-out: T. cruzi EC50

Row | Compound | activity at 10 µM ([1]; 10 uM, Table S2) [%] | activity at 10 µM [2, 3] [%] | other results
1 | CNc1ccc(C(=O)CC(O)CCC(C)C2OC(=O)CC(O)CC(=O)CC(O)CC(O)CC(O)CC(O)CC3(O)CC(O)C(C(=O)OC)C(CC(O[C@@H]4O[C@H](C)[C@@H](O)[C@H](N)[C@@H]4O)/C=C/C=C/C=C/C=C\C=C/C=C/C=C/C2C)O3)cc1 (stereo partly drawn) [MEPARTRICIN, methyl (19E,21E,23Z,25Z,27E,29E,31E)-33-{[(2R,3S,4S,5S,6R)-4-amino-3,5-dihydroxy-6-methyloxan-2-yl]oxy}-1,3,5,7,9,13,37-heptahydroxy-17-{5-hydroxy-7-[4-(methylamino)phenyl]-7-oxoheptan-2-yl}-18-methyl-11,15-dioxo-16,39-dioxabicyclo[33.3.1]nonatriaconta-19,21,23,25,27,29,31-heptaene-36-carboxylate] | 97.3 | 2.6 | 
2 | CSc1ccc2c(c1)C(N1CCN(C)CC1)Cc1ccccc1S2 (centres unmarked) [METHIOTHEPIN, (2Z)-but-2-enedioic acid; 1-methyl-4-[6-(methylsulfanyl)-2-thiatricyclo[9.4.0.0^{3,8}]pentadeca-1(15),3,5,7,11,13-hexaen-9-yl]piperazine] | 69.6 | 4.4 | 
3 | COC(=O)CCC(C)C1CCC2C3CCC4CC(O)CCC4(C)C3CC(O)C12C (centres unmarked) [METHYL DEOXYCHOLATE, methyl 4-{5,16-dihydroxy-2,15-dimethyltetracyclo[8.7.0.0^{2,7}.0^{11,15}]heptadecan-14-yl}pentanoate] | 100 | 22.9 | 
4 | COc1c2c(cc3occ(-c4ccc5c(c4)OCO5)c(=O)c13)OC(C)(C)C=C2 [METHYL ROBUSTONE, 3-(2H-1,3-benzodioxol-5-yl)-5-methoxy-8,8-dimethyl-4H,8H-pyrano[3,2-g]chromen-4-one] | 68.2 | 2.5 | 
5 | COc1c(-c2coc3cc4c(cc3c2=O)CC(OC(C)=O)C(C)(C)O4)ccc2c1C=CC(C)(C)O2 (centres unmarked) [MUNDULONE ACETATE] | 76 | 4.6 | 
6 | COc1c(C)c2c(c(O)c1CC=C(C)CCC(=O)O)C(=O)OC2 [MYCOPHENOLIC ACID, 6-(4-hydroxy-6-methoxy-7-methyl-3-oxo-1,3-dihydro-2-benzofuran-5-yl)-4-methylhex-4-enoic acid] | 97.2 | 12.2 | EC50 [2, 4]: 320 nM
7 | Clc1ccc(COC(Cn2ccnc2)c2ccc(Cl)cc2Cl)c(Cl)c1 (centres unmarked) [Miconazole, 1-[2-(2,4-dichlorophenyl)-2-[(2,4-dichlorophenyl)methoxy]ethyl]-1H-imidazole] | 100 | 0.4 | 
8 | CCN(CC)C(=S)SSC(=S)N(CC)CC [N,N-diethyl[(diethylcarbamothioyl)disulfanyl]carbothioamide] |  |  | activity at 10 µM ([1]; 10 uM, Table S1): 0.1%; activity at 10 µM [2, 5]: 0.3%
9 | COC(=O)C1=C(C)NC(C)=C(C(=O)OCCN(C)Cc2ccccc2)C1c1cccc([N+](=O)[O-])c1 (centres unmarked) [NICARDIPINE, 3-{2-[benzyl(methyl)amino]ethyl} 5-methyl 2,6-dimethyl-4-(3-nitrophenyl)-1,4-dihydropyridine-3,5-dicarboxylate] | 99.8 | 2 | EC50 [2, 4]: 5850 nM; EC50 [2, 6]: 5900 nM
10 | CC(CC(O)C1OC1(C)C)C1CCC2(C)C3=CCC4C(C)(C)C(=O)CCC4(C)C3CCC12C (centres unmarked) [NILOTICIN, 14-[4-(3,3-dimethyloxiran-2-yl)-4-hydroxybutan-2-yl]-2,6,6,11,15-pentamethyltetracyclo[8.7.0.0^{2,7}.0^{11,15}]heptadec-9-en-5-one] | 100 | 2.2 | 
11 | NC(=O)c1cc([N+](=O)[O-])cc([N+](=O)[O-])c1 [NITROMIDE, 3,5-dinitrobenzamide] |  |  | Mammalian (3T3) cell % growth at 10 uM ([1]; 10 uM, Table S2): 97.2%; T. cruzi % growth @ 10 uM (Amastigotes) ([2]; 10 uM, Table S2): 1.9%; EC50 ([2]; Table S2, amastigotes, read-out: T. cruzi EC50): 4800 nM
12 | CNCCC=C1c2ccccc2CCc2ccccc21 [NORTRIPTYLINE, methyl(3-{tricyclo[9.4.0.0^{3,8}]pentadeca-1(15),3,5,7,11,13-hexaen-2-ylidene}propyl)amine] |  |  | activity at 10 µM [1]: 100%; activity at 10 µM ([2]; Trypanosoma cruzi, TULAHUEN, Fibroblast, 120 h): 9.7%; EC50 ([2]; Trypanosoma cruzi, TULAHUEN, Fibroblast, read-out: T. cruzi EC50 (nM)): 5180 nM
13 | CC(C1OC(C)(C)C(O)C1O)C1CCC2(C)C3=CCC4C(C)(C)C(=O)CCC4(C)C3CCC12C (centres unmarked) [ODORATONE, 14-[1-(3,4-dihydroxy-5,5-dimethyloxolan-2-yl)ethyl]-2,6,6,11,15-pentamethyltetracyclo[8.7.0.0^{2,7}.0^{11,15}]heptadec-9-en-5-one] | 92.7 | 9.9 | 
14 | COC1CC(OC2C(C)C(=O)OC(C)C(C)C(O)C(C)C(=O)C3(CO3)CC(C)C(OC3OC(C)CC(N(C)C)C3O)C2C)OC(C)C1O (centres unmarked) [OLEANDOMYCIN PHOSPHATE, 14-{[4-(dimethylamino)-3-hydroxy-6-methyloxan-2-yl]oxy}-6-hydroxy-12-[(5-hydroxy-4-methoxy-6-methyloxan-2-yl)oxy]-5,7,8,11,13,15-hexamethyl-1,9-dioxaspiro[2.13]hexadecane-4,10-dione; phosphoric acid] | 100 | 15.7 | 
15 | CCCCC1C(=O)N(c2ccccc2)N(c2ccc(O)cc2)C1=O (centres unmarked) [OXYPHENBUTAZONE, 4-butyl-1-(4-hydroxyphenyl)-2-phenylpyrazolidine-3,5-dione] | 72.8 | 3.7 | EC50 [2, 6]: 12000 nM
16 | CC(=O)OC1C(=O)C2(C)C(O)CC3OCC3(OC(C)=O)C2C(OC(=O)c2ccccc2)C2(O)CC(OC(=O)C(O)C(NC(=O)c3ccccc3)c3ccccc3)C(C)=C1C2(C)C (centres unmarked) [PACLITAXEL, 4,12-bis(acetyloxy)-1,9-dihydroxy-15-{[2-hydroxy-3-phenyl-3-(phenylformamido)propanoyl]oxy}-10,14,17,17-tetramethyl-11-oxo-6-oxatetracyclo[11.3.1.0^{3,10}.0^{4,7}]heptadec-13-en-2-yl benzoate] |  |  | activity at 10 µM ([1]; 10 uM, Table S1): 58.1%; activity at 10 µM [2, 5]: 0.2%
17 | COc1cc2c(cc1OC)-c1cc3ccc(OC)c(OC)c3c[n+]1CC2.[Cl-] [PALMATINE, 3,4,10,11-tetramethoxy-7,8-dihydro-6000000l^5-azatetraphen-6-ylium l^3-chloridyl] |  |  | Mammalian (3T3) cell % growth at 10 uM ([1]; 10 uM, Table S2): 100.0% and 95.9%; T. cruzi % growth @ 10 uM (Amastigotes) ([2]; 10 uM, Table S2): 8.1% and 11.5%
18 | COc1ccc(Cc2nccc3cc(OC)c(OC)cc23)cc1OC [PAPAVERINE, 1-[(3,4-dimethoxyphenyl)methyl]-6,7-dimethoxyisoquinoline hydrochloride] | 93.1 | 8.4 | 
19 | NCC(=O)c1ccccc1 [PHENACYLAMINE, 2-amino-1-phenylethan-1-one hydrochloride] | 85.5 | 4.8 | 
20 | CCCCCCCCCCCCCC(=O)O[C@@H]1[C@@H](C)[C@@]2(O)[C@@H](C=C(CO)C[C@]3(O)C(=O)C(C)=C[C@@H]23)[C@@H]2C(C)(C)[C@]12OC(C)=O [PHORBOL MYRISTATE ACETATE, (1S,2S,6R,10S,11R,13S,14R,15R)-13-(acetyloxy)-1,6-dihydroxy-8-(hydroxymethyl)-4,12,12,15-tetramethyl-5-oxotetracyclo[8.5.0.0^{2,6}.0^{11,13}]pentadeca-3,8-dien-14-yl tetradecanoate] | 89.2 | 5.6 | 
21 | COc1cc(O)c2c(c1)C(=O)c1cc(C)cc(O)c1C2=O [PHYSCION, 1,8-dihydroxy-3-methoxy-6-methyl-9,10-dihydroanthracene-9,10-dione] | 96.8 | 9.2 | 
22 | CN1CCC(=C2c3ccccc3Sc3ccccc32)CC1 [PIMETHIXENE, 1-methyl-4-(9H-thioxanthen-9-ylidene)piperidine] | 98.5 | 3.9 | 
23 | Cc1nc2ccccn2c(=O)c1CCN1CCC(C(=O)c2ccc(F)cc2)CC1 [PIRENPERONE, 3-(2-{4-[(4-fluorophenyl)carbonyl]piperidin-1-yl}ethyl)-2-methyl-4H-pyrido[1,2-a]pyrimidin-4-one] | 91.6 | 23.1 | 
24 | CN1CCC(=C2c3ccccc3CCc3sccc32)CC1 [PIZOTYLINE MALATE, 1-methyl-4-{6-thiatricyclo[8.4.0.0^{3,7}]tetradeca-1(14),3(7),4,10,12-pentaen-2-ylidene}piperidine; 2-hydroxybutanedioic acid] | 86.5 | 21.4 | 
25 | COc1cc2nc(N3CCN(C(=O)c4ccco4)CC3)nc(N)c2cc1OC [PRAZOSIN HYDROCHLORIDE, 2-{4-[(furan-2-yl)carbonyl]piperazin-1-yl}-6,7-dimethoxyquinazolin-4-amine hydrochloride] | 70.7 | 1.8 | EC50 [2, 4]: 8360 nM; EC50 [2, 6]: < 10000 nM
26 | CCCC(C(=O)OCCN(CC)CC)(c1ccccc1)c1ccccc1 [PROADIFEN, 2-(diethylamino)ethyl 2,2-diphenylpentanoate] | 100 | 2.1 | 
27 | CN(C)CCCN1c2ccccc2Sc2ccccc21 [PROMAZINE, dimethyl[3-(10H-phenothiazin-10-yl)propyl]amine hydrochloride] | 98.7 | 9.2 | 
28 | COc1cc(NC(C)CCCN)c2ncccc2c1 (centres unmarked) [Primaquine, N-(5-aminopentan-2-yl)-6-methoxyquinolin-8-amine; bis(phosphoric acid)] | 91.1 | 4.7 | EC50 ([2]; Trypanosoma cruzi, TULAHUEN, Fibroblast, 120 h, intracellular amastigotes, 5 days, separate assays separated by semicolons, read-out: T. cruzi EC50): 300 nM
